Results: ChEMBL document CHEMBL1201862, “PubChem BioAssay data set” (2004)
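Protocol summary: plate cells (96-well), add compound at 5 concentrations, incubate 48 h, interpolate endpoints linearly. The concentration for 50% growth inhibition is given as GI50.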 Active and inactive are the calls of the source. No stated cut-off is given here; in the data, active = GI50 up to about 1.1 µM and inactive = higher.

Tests used:
Assay in all cases: DTP human tumour cell line panel, 48 h
786-0 = test system: 786-0
A498 = test system: A498
A549 = test system: A549
ACHN = test system: ACHN
BT-549 = test system: BT-549
CAKI-1 = test system: CAKI-1
CCRF-CEM = test system: CCRF-CEM
COLO 205 = test system: COLO 205
DLD-1 = test system: DLD-1
DMS-273 = test system: DMS-273
DU-145 = test system: DU-145
EKVX = test system: EKVX
HCC 2998 = test system: HCC 2998
HCT-116 = test system: HCT-116
HCT-15 = test system: HCT-15
HL-60 = test system: HL-60
HOP-18 = test system: HOP-18
HOP-62 = test system: HOP-62
HOP-92 = test system: HOP-92
HT-29 = test system: HT-29
Hs-578T = test system: Hs-578T
IGROV-1 = test system: IGROV-1
K562 = test system: K562
KM-20L2 = test system: KM-20L2
KM12 = test system: KM12
LOX IMVI = test system: LOX IMVI
M14 = test system: M14
M19-MEL = test system: M19-MEL
MCF7 = test system: MCF7
MDA-MB-231 = test system: MDA-MB-231
MDA-MB-435 = test system: MDA-MB-435
MDA-N = test system: MDA-N
MOLT-4 = test system: MOLT-4
Malme-3M = test system: Malme-3M
NCI-H226 = test system: NCI-H226
NCI-H23 = test system: NCI-H23
NCI-H460 = test system: NCI-H460
NCI-H522 = test system: NCI-H522
NCI/ADR-RES = test system: NCI/ADR-RES
OVCAR-3 = test system: OVCAR-3
OVCAR-4 = test system: OVCAR-4
OVCAR-5 = test system: OVCAR-5
OVCAR-8 = test system: OVCAR-8
PC-3 = test system: PC-3
RPMI-8226 = test system: RPMI-8226
RXF 393 = test system: RXF 393
SF-268 = test system: SF-268
SF-295 = test system: SF-295
SF-539 = test system: SF-539
SK-MEL-28 = test system: SK-MEL-28
SK-MEL-2 = test system: SK-MEL-2
SK-MEL-5 = test system: SK-MEL-5
SK-OV-3 = test system: SK-OV-3
SN12C = test system: SN12C
SNB-19 = test system: SNB-19
SNB-75 = test system: SNB-75
SNB-78 = test system: SNB-78
SR = test system: SR
SW-620 = test system: SW-620
T47D = test system: T47D
TK-10 = test system: TK-10
U-251 = test system: U-251
UACC-257 = test system: UACC-257
UACC-62 = test system: UACC-62
UO-31 = test system: UO-31
DMS-114 = test system: DMS-114
LXFL 529 = test system: LXFL 529

CN(C)CC1CCCC(CN2CCCCC2)C1=O (stereo unspecified) was tested, and the GI50 (786-0) was 2.74 µM (inactive), the GI50 (A498) was 38.5 µM (inactive) and the GI50 (A549) was > 62.1 µM (inactive). For the same compound, the GI50 (ACHN) was 6.58 µM (inactive), the GI50 (BT-549) was 15.2 µM (inactive) and the GI50 (CAKI-1) was 1.53 µM (inactive). For the same compound, the GI50 (CCRF-CEM) was 0.000762 mM (active), the GI50 (COLO 205) was 3.08 µM (inactive) and the GI50 (DLD-1) was 2.98 µM (inactive). The GI50 (DMS-273) was 22.1 µM (inactive), the GI50 (DU-145) was 18.2 µM (inactive) and the GI50 (EKVX) was 12.5 µM (inactive). For the same compound, the GI50 (HCC 2998) was 18.5 µM (inactive), the GI50 (HCT-116) was 3.01 µM (inactive) and the GI50 (HCT-15) was 8.83 µM. For the same compound, the GI50 (HL-60) was 2.18 µM (inactive), the GI50 (HOP-18) was 2.02 µM (inactive) and the GI50 (HOP-62) was > 100 µM (inactive). The GI50 (HOP-92) was 1.96 µM (inactive), the GI50 (HT-29) was 5.4 µM (inactive) and the GI50 (Hs-578T) was 19.7 µM (inactive). For the same compound, the GI50 (IGROV-1) was 17 µM (inactive), the GI50 (K562) was 0.000172 mM (active) and the GI50 (KM-20L2) was 19.6 µM (inactive). For the same compound, the GI50 (KM12) was 19.4 µM (inactive), the GI50 (LOX IMVI) was 8.26 µM (inactive) and the GI50 (M14) was 7.73 µM (inactive). For the same compound, the GI50 (M19-MEL) was 18.8 µM (inactive), the GI50 (MCF7) was 1.07 µM (active) and the GI50 (MDA-MB-231) was 15.1 µM (inactive). The GI50 (MDA-MB-435) was 17.1 µM (inactive), the GI50 (MDA-N) was 14.4 µM (inactive) and the GI50 (MOLT-4) was 0.000604 mM (active). The GI50 (Malme-3M) was 3.33 µM (inactive), the GI50 (NCI-H226) was 20.6 µM (inactive) and the GI50 (NCI-H23) was 17.9 µM (inactive). For the same compound, the GI50 (NCI-H460) was > 55.8 µM (inactive), the GI50 (NCI-H522) was 7.64e-05 mM (active) and the GI50 (NCI/ADR-RES) was 3.89 µM (inactive). The GI50 (OVCAR-3) was 8.63 µM (inactive), the GI50 (OVCAR-4) was 4.25 µM (inactive) and the GI50 (OVCAR-5) was 31.4 µM (inactive). The GI50 (OVCAR-8) was 14.2 µM (inactive), the GI50 (PC-3) was 15.6 µM (inactive) and the GI50 (RPMI-8226) was 0.000158 mM (active). For the same compound, the GI50 (RXF 393) was 12.8 µM (inactive), the GI50 (SF-268) was 19.5 µM (inactive) and the GI50 (SF-295) was > 93.5 µM (inactive). For the same compound, the GI50 (SF-539) was 17.5 µM (inactive), the GI50 (SK-MEL-28) was 13.9 µM (inactive) and the GI50 (SK-MEL-2) was 15.7 µM (inactive). For the same compound, the GI50 (SK-MEL-5) was 18.7 µM (inactive), the GI50 (SK-OV-3) was > 62.7 µM (inactive) and the GI50 (SN12C) was 8.32 µM (inactive). For the same compound, the GI50 (SNB-19) was > 88.3 µM (inactive), the GI50 (SNB-75) was 19.4 µM (inactive) and the GI50 (SNB-78) was 7.71 µM (inactive). The GI50 (SR) was 10.8 µM (inactive), the GI50 (SW-620) was 1.87 µM (inactive) and the GI50 (T47D) was 2.19 µM (inactive). For the same compound, the GI50 (TK-10) was 8.73 µM (inactive), the GI50 (U-251) was > 54.6 µM (inactive) and the GI50 (UACC-257) was 14.6 µM (inactive). The GI50 (UACC-62) was 18.3 µM (inactive) and the GI50 (UO-31) was 17.2 µM (inactive).

With CC(C)C(N)=O [ISOBUTYRAMIDE] the GI50 (786-0) was > 5000 µM (inactive), the GI50 (A549) was > 5000 µM (inactive) and the GI50 (ACHN) was > 5000 µM (inactive). For the same compound, the GI50 (CAKI-1) was > 5000 µM (inactive), the GI50 (CCRF-CEM) was > 5 mM (inactive) and the GI50 (COLO 205) was > 5000 µM (inactive). For the same compound, the GI50 (DLD-1) was > 5000 µM (inactive), the GI50 (DMS-114) was > 5 mM (inactive) and the GI50 (DMS-273) was > 5000 µM (inactive). For the same compound, the GI50 (HCT-116) was > 5000 µM (inactive), the GI50 (HCT-15) was > 5000 µM and the GI50 (HL-60) was > 5000 µM (inactive). The GI50 (HOP-18) was > 5000 µM (inactive), the GI50 (HOP-62) was > 5000 µM (inactive) and the GI50 (HOP-92) was > 5000 µM (inactive). The GI50 (HT-29) was > 5000 µM (inactive), the GI50 (IGROV-1) was > 5000 µM (inactive) and the GI50 (K562) was > 5 mM (inactive). The GI50 (KM12) was > 5000 µM (inactive), the GI50 (LOX IMVI) was > 5000 µM (inactive) and the GI50 (LXFL 529) was > 5 mM (inactive). The GI50 (M14) was > 5000 µM (inactive), the GI50 (M19-MEL) was > 5000 µM (inactive) and the GI50 (MOLT-4) was > 5 mM (inactive). For the same compound, the GI50 (Malme-3M) was > 5000 µM (inactive), the GI50 (NCI-H226) was > 5000 µM (inactive) and the GI50 (NCI-H23) was > 5000 µM (inactive). For the same compound, the GI50 (NCI-H460) was > 5000 µM (inactive), the GI50 (NCI-H522) was > 5 mM (inactive) and the GI50 (OVCAR-4) was > 5000 µM (inactive). The GI50 (OVCAR-5) was > 5000 µM (inactive), the GI50 (OVCAR-8) was > 5000 µM (inactive) and the GI50 (RPMI-8226) was > 5 mM (inactive). For the same compound, the GI50 (RXF 393) was > 5000 µM (inactive), the GI50 (SF-268) was > 5000 µM (inactive) and the GI50 (SF-295) was > 5000 µM (inactive). For the same compound, the GI50 (SF-539) was > 5000 µM (inactive), the GI50 (SK-MEL-28) was > 5000 µM (inactive) and the GI50 (SK-MEL-2) was > 5000 µM (inactive). For the same compound, the GI50 (SK-MEL-5) was > 5000 µM (inactive), the GI50 (SK-OV-3) was > 5000 µM (inactive) and the GI50 (SN12C) was > 5000 µM (inactive). For the same compound, the GI50 (SNB-75) was > 5000 µM (inactive), the GI50 (SNB-78) was > 5000 µM (inactive) and the GI50 (SR) was > 5000 µM (inactive). For the same compound, the GI50 (SW-620) was > 5000 µM (inactive), the GI50 (TK-10) was > 5000 µM (inactive) and the GI50 (U-251) was > 5000 µM (inactive). The GI50 (UACC-257) was > 5000 µM (inactive), the GI50 (UACC-62) was > 5000 µM (inactive) and the GI50 (UO-31) was > 5000 µM (inactive).
